In ChEMBL document CHEMBL2440076, “New triarylpyrazoles as broad-spectrum anticancer agents: design, synthesis, and biological evaluation” (Eur J Med Chem, 2013):

Assays:
Type in all cases: functional
[1] = test system: NCI-H226; assay: Growth inhibition of human NCI-H226 cells assessed as cell growth at 10^-7 M after 48 hrs by sulforhodamine B assay; conditions: NCI-H226, 48 h, read-out: Activity
[2] = test system: HOP-62; assay: Growth inhibition of human HOP62 cells assessed as cell growth at 10^-7 M after 48 hrs by sulforhodamine B assay; conditions: HOP-62, 48 h, read-out: Activity
[3] = test system: CCRF-CEM; assay: Growth inhibition of human CCRF-CEM cells assessed as cell growth at 10^-7 M after 48 hrs by sulforhodamine B assay; conditions: read-out: Activity
[4] = test system: BT-549; assay: Growth inhibition of human BT549 cells assessed as cell growth at 10^-8 M after 48 hrs by sulforhodamine B assay; conditions: BT-549, 48 h, read-out: Activity
[5] = test system: MCF7; assay: Growth inhibition of human MCF7 cells assessed as cell growth at 10^-8 M after 48 hrs by sulforhodamine B assay; conditions: MCF7, 48 h, read-out: Activity
[6] = test system: UACC-62; assay: Growth inhibition of human UACC62 cells assessed as cell growth at 10^-4 M after 48 hrs by sulforhodamine B assay; conditions: UACC-62, 48 h, read-out: Activity
[7] = test system: M14; assay: Growth inhibition of human M14 cells assessed as cell growth at 10^-4 M after 48 hrs by sulforhodamine B assay; conditions: M14, 48 h, read-out: Activity
[8] = test system: SNB-19; assay: Growth inhibition of human SNB19 cells assessed as cell growth at 10^-4 M after 48 hrs by sulforhodamine B assay; conditions: SNB-19, 48 h, read-out: Activity
[9] = test system: SW-620; assay: Growth inhibition of human SW620 cells assessed as cell growth at 10^-4 M after 48 hrs by sulforhodamine B assay; conditions: SW-620, 48 h, read-out: Activity
[10] = test system: HCT-116; assay: Growth inhibition of human HCT116 cells assessed as cell growth at 10^-4 M after 48 hrs by sulforhodamine B assay; conditions: HCT-116, 48 h, read-out: Activity
[11] = test system: COLO 205; assay: Growth inhibition of human COLO205 cells assessed as cell growth at 10^-4 M after 48 hrs by sulforhodamine B assay; conditions: COLO 205, 48 h, read-out: Activity
[12] = test system: HT-29; assay: Growth inhibition of human HT-29 cells assessed as cell growth at 10^-8 M after 48 hrs by sulforhodamine B assay; conditions: HT-29, 48 h, read-out: Activity
[13] = test system: HCT-15; assay: Growth inhibition of human HCT15 cells assessed as cell growth at 10^-8 M after 48 hrs by sulforhodamine B assay; conditions: HCT-15, 48 h, read-out: Activity
[14] = test system: HOP-92; assay: Growth inhibition of human HOP92 cells assessed as cell growth at 10^-8 M after 48 hrs by sulforhodamine B assay; conditions: HOP-92, 48 h, read-out: Activity
[15] = test system: NCI-H322M; assay: Growth inhibition of human NCI-H322M cells assessed as cell growth at 10^-4 M after 48 hrs by sulforhodamine B assay; conditions: read-out: Activity
[16] = test system: CCRF-CEM; assay: Growth inhibition of human CCRF-CEM cells assessed as cell growth at 10^-4 M after 48 hrs by sulforhodamine B assay; conditions: read-out: Activity
[17] = test system: UO-31; assay: Growth inhibition of human UO31 cells assessed as cell growth at 10^-5 M after 48 hrs by sulforhodamine B assay; conditions: UO-31, 48 h, read-out: Activity
[18] = test system: SK-MEL-2; assay: Growth inhibition of human SK-MEL-2 cells assessed as cell growth at 10^-5 M after 48 hrs by sulforhodamine B assay; conditions: SK-MEL-2, 48 h, read-out: Activity
[19] = test system: Malme-3M; assay: Growth inhibition of human MALME-3M cells assessed as cell growth at 10^-5 M after 48 hrs by sulforhodamine B assay; conditions: read-out: Activity
[20] = test system: SF-539; assay: Growth inhibition of human SF539 cells assessed as cell growth at 10^-5 M after 48 hrs by sulforhodamine B assay; conditions: SF-539, 48 h, read-out: Activity
[21] = test system: SF-295; assay: Growth inhibition of human SF295 cells assessed as cell growth at 10^-5 M after 48 hrs by sulforhodamine B assay; conditions: SF-295, 48 h, read-out: Activity
[22] = test system: RPMI-8226; assay: Growth inhibition of human RPMI8226 cells assessed as cell growth at 10^-5 M after 48 hrs by sulforhodamine B assay; conditions: RPMI-8226, 48 h, read-out: Activity
[23] = test system: CCRF-CEM; assay: Growth inhibition of human CCRF-CEM cells assessed as cell growth at 10^-5 M after 48 hrs by sulforhodamine B assay; conditions: read-out: Activity
[24] = test system: BT-549; assay: Growth inhibition of human BT549 cells assessed as cell growth at 10^-6 M after 48 hrs by sulforhodamine B assay; conditions: BT-549, 48 h, read-out: Activity
[25] = test system: SN12C; assay: Growth inhibition of human SN12C cells assessed as cell growth at 10^-6 M after 48 hrs by sulforhodamine B assay; conditions: read-out: Activity
[26] = test system: TK-10; assay: Growth inhibition of human TK10 cells assessed as cell growth at 10^-6 M after 48 hrs by sulforhodamine B assay; conditions: TK-10, 48 h, read-out: Activity
[27] = test system: RXF 393; assay: Growth inhibition of human RXF393 cells assessed as cell growth at 10^-6 M after 48 hrs by sulforhodamine B assay; conditions: RXF 393, 48 h, read-out: Activity
[28] = test system: UACC-62; assay: Growth inhibition of human UACC62 cells assessed as cell growth at 10^-6 M after 48 hrs by sulforhodamine B assay; conditions: UACC-62, 48 h, read-out: Activity
[29] = test system: U-251; assay: Growth inhibition of human U251 cells assessed as cell growth at 10^-6 M after 48 hrs by sulforhodamine B assay; conditions: U-251, 48 h, read-out: Activity
[30] = test system: NCI-H23; assay: Growth inhibition of human NCI-H23 cells assessed as cell growth at 10^-6 M after 48 hrs by sulforhodamine B assay; conditions: NCI-H23, 48 h, read-out: Activity
[31] = test system: K562; assay: Growth inhibition of human K562 cells assessed as cell growth at 10^-6 M after 48 hrs by sulforhodamine B assay; conditions: K562, 48 h, read-out: Activity
[32] = test system: HL-60(TB); assay: Growth inhibition of human HL-60(TB) cells assessed as cell growth at 10^-6 M after 48 hrs by sulforhodamine B assay; conditions: HL-60, 48 h, read-out: Activity
[33] = test system: PC-3; assay: Growth inhibition of human PC3 cells assessed as cell growth at 10^-7 M after 48 hrs by sulforhodamine B assay; conditions: PC-3, 48 h, read-out: Activity
[34] = test system: A498; assay: Growth inhibition of human A498 cells assessed as cell growth at 10^-7 M after 48 hrs by sulforhodamine B assay; conditions: A498, 48 h, read-out: Activity
[35] = test system: OVCAR-4; assay: Growth inhibition of human OVCAR4 cells assessed as cell growth at 10^-7 M after 48 hrs by sulforhodamine B assay; conditions: OVCAR-4, 48 h, read-out: Activity
[36] = test system: UACC-62; assay: Growth inhibition of human UACC62 cells assessed as cell growth at 10^-7 M after 48 hrs by sulforhodamine B assay; conditions: UACC-62, 48 h, read-out: Activity
[37] = test system: MDA-MB-435; assay: Growth inhibition of human MDA-MB-435 cells assessed as cell growth at 10^-7 M after 48 hrs by sulforhodamine B assay; conditions: MDA-MB-435, 48 h, read-out: Activity

COc1cc(-c2nn(-c3cccc(NC(=O)c4ccccc4)c3)cc2-c2ccncc2)ccc1Cl
growth at 0.1 µM [1]: 96%
growth at 0.1 µM [2]: 98%
growth at 0.1 µM [3]: 101%
growth at 0.01 µM [4]: 92%
growth at 0.01 µM [5]: 92%
growth at 100 µM [6]: 19%
growth at 100 µM [7]: -41%
growth at 100 µM [8]: 13%
growth at 100 µM [9]: 14%
growth at 100 µM [10]: 9%
growth at 100 µM [11]: -54%
growth at 0.01 µM [12]: 98%
growth at 0.01 µM [13]: 97%
growth at 0.01 µM [14]: 93%
growth at 100 µM [15]: 34%
growth at 100 µM [16]: 16%
growth at 10 µM [17]: 18%
growth at 10 µM [18]: -10%
growth at 10 µM [19]: 8%
growth at 10 µM [20]: -25%
growth at 10 µM [21]: -27%
growth at 10 µM [22]: 10%
growth at 10 µM [23]: 6%
growth at 1 µM [24]: 53%
growth at 1 µM [25]: 64%
growth at 1 µM [26]: 80%
growth at 1 µM [27]: 35%
growth at 1 µM [28]: 41%
growth at 1 µM [29]: 40%
growth at 1 µM [30]: 63%
growth at 1 µM [31]: 21%
growth at 1 µM [32]: 27%
growth at 0.1 µM [33]: 86%
growth at 0.1 µM [34]: 89%
growth at 0.1 µM [35]: 95%
growth at 0.1 µM [36]: 96%
growth at 0.1 µM [37]: 80%

COc1cc(-c2nn(-c3cccc(NC(=O)c4ccc(N5CCOCC5)c(C(F)(F)F)c4)c3)cc2-c2ccncc2)ccc1Cl
growth at 0.1 µM [1]: 87%
growth at 0.1 µM [2]: 90%
growth at 0.1 µM [3]: 73%
growth at 0.01 µM [4]: 99%
growth at 0.01 µM [5]: 87%
growth at 100 µM [6]: -32%
growth at 100 µM [7]: -30%
growth at 100 µM [8]: 15%
growth at 100 µM [9]: 10%
growth at 100 µM [10]: 2%
growth at 100 µM [11]: -75%
growth at 0.01 µM [12]: 98%
growth at 0.01 µM [13]: 98%
growth at 0.01 µM [14]: 70%
growth at 100 µM [15]: -1%
growth at 100 µM [16]: 8%
growth at 10 µM [17]: -5%
growth at 10 µM [18]: -2%
growth at 10 µM [19]: -14%
growth at 10 µM [20]: -54%
growth at 10 µM [21]: -64%
growth at 10 µM [22]: 6%
growth at 10 µM [23]: 5%
growth at 1 µM [24]: 54%
growth at 1 µM [25]: 51%
growth at 1 µM [26]: 58%
growth at 1 µM [27]: -16%
growth at 1 µM [28]: 42%
growth at 1 µM [29]: 25%
growth at 1 µM [30]: 47%
growth at 1 µM [31]: 11%
growth at 1 µM [32]: 24%
growth at 0.1 µM [33]: 73%
growth at 0.1 µM [34]: 77%
growth at 0.1 µM [35]: 92%
growth at 0.1 µM [36]: 56%
growth at 0.1 µM [37]: -4%
